Data from patent US20240041042A1, “1-(PYRIDYL)-5-AZINYLPYRAZOLE DERIVATIVES, AND THEIR USE FOR CONTROL OF UNDESIRED PLANT GROWTH” (Bayer Aktiengesellschaft, priority 2020, published 2024).
Read-outs that look alike come from different tables or passages of the source.

Columns and labels:
Type in all cases: in vivo
Setaria viridis (SETVI) [1] = experiment: Pre-emergence herbicidal action against SETVI
Method in brief: (§1)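 Dosages of 320 g/ha or less; pre-emergence; WP or EC in aqueous spray, 0.5% additive, 600 l/ha; greenhouse; visual % effect after ~3 wk relative to control pots.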

Lolium rigidum (LOLRI) [2] = experiment: Post-emergence herbicidal action against LOLRI; conditions: dosage 320 g/ha
Method in brief: (§2)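 Greenhouse plants sprayed at the one-leaf stage, 2–3 weeks after sowing, with WP or EC formulations plus 0.5% additive at 600 l/ha water. Activity rated visually after about 3 weeks versus untreated controls (100% = dead, 0% = like control), at 320 g/ha or lower.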

[3] = test system: Verconica persica (VERPE); experiment: Post-emergence herbicidal action against VERPE
Method in brief: as §2

[4] = test system: Abutilon theophrasti (ABUTH); experiment: Pre-emergence herbicidal action against ABUTH; conditions: Dosage column 320 g/ha (title prints 3200 g/ha); scored visually after about 3 weeks; 100% = plants have died
Method in brief: as §1

Viola tricolor (VIOTR) [5] = experiment: Pre-emergence herbicidal action against VIOTR
Method in brief: as §1

Lolium rigidum (LOLRI) [6] = experiment: Pre-emergence herbicidal action against LOLRI
Method in brief: as §1

Setaria viridis (SETVI) [7] = experiment: Post-emergence herbicidal action against SETVI
Method in brief: as §2

Brassica napus (BRSNW) = conditions: 20 g/ha, crop plant compatibility, in comparison to untreated controls
Method in brief: (§3)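 Crop injury rated visually in percent against untreated plants roughly 3 weeks after treatment (0% no effect, 100% plants dead). Compounds, as WP or EC with 0.5% additive in 600 l/ha water, were applied to the covering soil right after sowing; greenhouse growth. Suffixes a, b, c denote different dosages.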

[8] = test system: Triticum aestivum (TRZAS); conditions: 20 g/ha; crop plant compatibility, effect vs untreated controls
Method in brief: as §3

Avena fatua (AVEFA) = experiment: Pre-emergence herbicidal action against AVEFA; conditions: visual scoring after about 3 weeks vs untreated controls
Method in brief: as §1

Oryza sativa (ORYSA) = conditions: crop plant compatibility
Method in brief: (§4)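 Test crops were treated 2 to 3 weeks after sowing, once they reached one leaf, by spraying compound in water with 0.5% additive at 600 l/ha. Visual scoring compared them with untreated controls roughly 3 weeks on, and appendices a, b and c denote different doses.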

[9] = test system: Digitaria sanguinalis (DIGSA); experiment: Post-emergence herbicidal action against DIGSA; conditions: visual rating about 3 weeks after treatment
Method in brief: as §2

[10] = test system: Polygonum convolvulus (POLCO); experiment: Pre-emergence herbicidal action against POLCO
Method in brief: as §1

[11] = test system: Alopecurus myosuroides (ALOMY); experiment: Pre-emergence herbicidal action against ALOMY; conditions: scored visually after about 3 weeks, 100% = plants have died
Method in brief: as §1

[12] = test system: Matricaria inodora (MATIN); experiment: Post-emergence herbicidal action against MATIN
Method in brief: as §2

[13] = test system: Amaranthus retroflexus (AMARE); experiment: Pre-emergence herbicidal action against AMARE; conditions: visual scoring after about 3 weeks vs untreated controls
Method in brief: as §1

[14] = test system: Matricaria inodora (MATIN); experiment: Pre-emergence herbicidal action against MATIN
Method in brief: as §1

[15] = test system: Pharbitis purpurea (PHBPU); experiment: Post-emergence herbicidal action against PHBPU
Method in brief: as §2

Viola tricolor (VIOTR) [16] = experiment: Post-emergence herbicidal action against VIOTR; conditions: 320 g/ha
Method in brief: as §2

[17] = test system: Alopecurus myosuroides (ALOMY); experiment: Post-emergence herbicidal action against ALOMY; conditions: visual rating about 3 weeks after treatment vs untreated controls (100% = plants have died, 0% = like control plants)
Method in brief: as §2

[18] = test system: Digitaria sanguinalis (DIGSA); experiment: Pre-emergence herbicidal action against DIGSA
Method in brief: as §1

[19] = test system: Pharbitis purpurea (PHBPU); experiment: Pre-emergence herbicidal action against PHBPU; conditions: dosage 320 g/ha
Method in brief: as §1

[20] = test system: Echinochloa crus-galli (ECHCG); experiment: Pre-emergence herbicidal action against ECHCG; conditions: dosage 320 g/ha
Method in brief: as §1

[21] = test system: Verconica persica (VERPE); experiment: Pre-emergence herbicidal action against VERPE; conditions: dosage 320 g/ha
Method in brief: as §1

Zea mays (ZEAMX) [22] = conditions: pre-emergence, crop plant compatibility, in comparison to untreated controls
Method in brief: as §3

Glycine max (GLXMA) = conditions: pre-emergence, 80 g/ha, crop plant compatibility, in comparison to untreated controls
Method in brief: as §3

[23] = test system: Polygonum convolvulus (POLCO); experiment: Post-emergence herbicidal action against POLCO; conditions: dosage 320 g/ha
Method in brief: as §2

[24] = test system: Amaranthus retroflexus (AMARE); experiment: Post-emergence herbicidal action against AMARE
Method in brief: as §2

[25] = test system: Abutilon theophrasti (ABUTH); experiment: Post-emergence herbicidal action against ABUTH; conditions: 320 g/ha, visual rating about 3 weeks after treatment vs untreated controls (100% = plants have died, 0% = like control plants)
Method in brief: as §2

[26] = test system: Echinochloa crus-galli (ECHCG); experiment: Post-emergence herbicidal action against ECHCG; conditions: dosage 320 g/ha
Method in brief: as §2

Zea mays (ZEAMX) [27] = conditions: crop plant compatibility, 80 g/ha, effect vs untreated controls
Method in brief: as §4

[28] = test system: Triticum aestivum (TRZAS); conditions: crop plant compatibility, 80 g/ha, effect vs untreated controls
Method in brief: as §4

[29] = 80 g/ha, effect in comparison to untreated controls
[30] = 320 g/ha, visual rating about 3 weeks after treatment

COC(=O)[C@@H](C)Oc1nn(-c2ncccc2F)c(-c2cncc(F)c2)c1Br [Example I-15]
0%: Post-emergence action against ORYSA in % (Oryza sativa (ORYSA); 20 g/ha, effect vs untreated controls)
90%: Pre-emergence action against ABUTH [4] | Pre-emergence action against LOLRI in % (Lolium rigidum (LOLRI) [6]; dosage 80 g/ha) | Post-emergence action against SETVI in % (Setaria viridis (SETVI) [7]; dosage 320 g/ha) | Post-emergence action against DIGSA in % ([9]; 80 g/ha) | Post-emergence action against DIGSA in % ([9]; 320 g/ha) | Pre-emergence action against POLCO in % ([10]; dosage 80 g/ha) | Post-emergence action against MATIN in % ([12]; dosage 320 g/ha) | Post-emergence action against PHBPU in % ([15]; dosage 320 g/ha) | Post-emergence action against ALOMY in % ([17]; 80 g/ha) | Post-emergence action against ALOMY in % ([17]; 320 g/ha) | Pre-emergence action against ECHCG in % [20]
10%: Pre-emergence action against BRSNW in % (Brassica napus (BRSNW)) | Pre-emergence action against TRZAS [8] | Post-emergence action against ORYSA in % (Oryza sativa (ORYSA); [29])
80%: Post-emergence action against LOLRI in % (Lolium rigidum (LOLRI) [2]) | Post-emergence action against VERPE in % ([3]; 320 g/ha, VERPE) | Post-emergence action against VERPE in % ([3]; dosage 80 g/ha) | Post-emergence action against SETVI in % (Setaria viridis (SETVI) [7]; dosage 80 g/ha) | Pre-emergence action against AVEFA in % (Avena fatua (AVEFA); 80 g/ha) | Post-emergence action against MATIN in % ([12]; dosage 80 g/ha) | Post-emergence action against VIOTR in % (Viola tricolor (VIOTR) [16]) | Pre-emergence action against PHBPU in % [19]
100%: Pre-emergence action against SETVI in % (Setaria viridis (SETVI) [1]; dosage 80 g/ha) | Pre-emergence action against SETVI in % (Setaria viridis (SETVI) [1]; dosage 320 g/ha) | Pre-emergence action against VIOTR in % (Viola tricolor (VIOTR) [5]; 320 g/ha, Viola tricolor) | Pre-emergence action against VIOTR in % (Viola tricolor (VIOTR) [5]; dosage 80 g/ha) | Pre-emergence action against LOLRI in % (Lolium rigidum (LOLRI) [6]; dosage 320 g/ha) | Pre-emergence action against AVEFA in % (Avena fatua (AVEFA); 320 g/ha) | Pre-emergence action against POLCO in % ([10]; dosage 320 g/ha) | Pre-emergence action against ALOMY ([11]; 80 g/ha) | Pre-emergence action against ALOMY ([11]; 320 g/ha) | Pre-emergence action against AMARE in % ([13]; 80 g/ha) | Pre-emergence action against AMARE in % ([13]; 320 g/ha) | Pre-emergence action against MATIN in % ([14]; dosage 80 g/ha) | Pre-emergence action against MATIN in % ([14]; dosage 320 g/ha) | Pre-emergence action against DIGSA in % ([18]; 80 g/ha, visual scoring after about 3 weeks vs untreated controls) | Pre-emergence action against DIGSA in % ([18]; dosage 320 g/ha) | Pre-emergence action against VERPE in % [21]

COC(=O)CCOC(=O)COc1nn(-c2ccccn2)c(-c2ccc(F)nc2)c1F [Example I-309]
0%: Pre-emergence action against ZEAMX in % (Zea mays (ZEAMX) [22]; 80 g/ha) | Pre-emergence action against GLXMA in % (Glycine max (GLXMA))
90%: Pre-emergence action against SETVI in % (Setaria viridis (SETVI) [1]; dosage 320 g/ha) | Post-emergence action against LOLRI in % (Lolium rigidum (LOLRI) [2]) | Post-emergence action against SETVI in % (Setaria viridis (SETVI) [7]; dosage 320 g/ha) | Post-emergence action against AMARE in % ([24]; 80 g/ha, visual rating about 3 weeks after treatment vs untreated controls (100% = plants have died, 0% = like control plants)) | Post-emergence action against AMARE in % [24, 30] | Post-emergence action against ECHCG in % [26] | Pre-emergence action against ALOMY ([11]; 320 g/ha) | Pre-emergence action against AMARE in % ([13]; 320 g/ha) | Pre-emergence action against MATIN in % ([14]; dosage 320 g/ha) | Post-emergence action against PHBPU in % ([15]; dosage 320 g/ha)
80%: Post-emergence action against VERPE in % ([3]; 320 g/ha, VERPE) | Post-emergence action against VERPE in % ([3]; dosage 80 g/ha) | Post-emergence action against POLCO in % [23] | Post-emergence action against ABUTH in % [25] | Pre-emergence action against POLCO in % ([10]; dosage 320 g/ha) | Post-emergence action against MATIN in % ([12]; dosage 320 g/ha) | Post-emergence action against PHBPU in % ([15]; dosage 80 g/ha) | Pre-emergence action against ECHCG in % [20]
10%: Pre-emergence action against ZEAMX in % (Zea mays (ZEAMX) [22]; 320 g/ha)

O=C(O)COc1nn(-c2ncccc2C(F)(F)F)c(-c2cncc(F)c2)c1Br [Example I-230]
10%: Post-emergence action against TRZAS in % [28]
0%: Post-emergence action against ZEAMX in % (Zea mays (ZEAMX) [27]) | Post-emergence action against ORYSA in % (Oryza sativa (ORYSA); [29])
90%: Pre-emergence action against VIOTR in % (Viola tricolor (VIOTR) [5]; 320 g/ha, Viola tricolor) | Post-emergence action against AMARE in % [24, 30] | Pre-emergence action against POLCO in % ([10]; dosage 320 g/ha) | Post-emergence action against PHBPU in % ([15]; dosage 320 g/ha) | Pre-emergence action against PHBPU in % [19] | Pre-emergence action against ECHCG in % [20]
20%: Pre-emergence action against GLXMA in % (Glycine max (GLXMA))
100%: Pre-emergence action against SETVI in % (Setaria viridis (SETVI) [1]; dosage 320 g/ha)
80%: Post-emergence action against VERPE in % ([3]; 320 g/ha, VERPE) | Post-emergence action against VERPE in % ([3]; dosage 80 g/ha) | Pre-emergence action against VIOTR in % (Viola tricolor (VIOTR) [5]; dosage 80 g/ha) | Post-emergence action against SETVI in % (Setaria viridis (SETVI) [7]; dosage 320 g/ha) | Post-emergence action against POLCO in % [23] | Pre-emergence action against POLCO in % ([10]; dosage 80 g/ha) | Post-emergence action against ECHCG in % [26] | Pre-emergence action against AMARE in % ([13]; 320 g/ha) | Post-emergence action against VIOTR in % (Viola tricolor (VIOTR) [16])
